Test results published in PMC4854315, “Discovery of a novel allosteric inhibitor-binding site in ERK5: comparison with the canonical kinase hinge ATP-binding site” (Acta Crystallographica. Section D, Structural Biology, 2016).

Experiments:
Assay in all cases: Z'-LYTE kinase panel
Assay type in all cases: biochemical
FGFR2 = target: T1, FGFR2 (Homo sapiens, UniProt P21802)
T1 construct: purchased ThermoFisher (SelectScreen, Z'-LYTE)
Method: (§1) Compounds 2, 3 and 5 were tested for activity against the 225 kinases in the ThermoFisher standard kinase panel. The standard Z′-LYTE assay protocol (ThermoFisher) was used to measure the percentage inhibition at 10 µM compound concentration (details are provided in the supporting information).

MINK1 = target: T2, MINK1 (Homo sapiens, UniProt Q8N4C8)
T2 construct: purchased ThermoFisher (SelectScreen, Z'-LYTE)
T2 sequence (Q8N4C8 whole entry): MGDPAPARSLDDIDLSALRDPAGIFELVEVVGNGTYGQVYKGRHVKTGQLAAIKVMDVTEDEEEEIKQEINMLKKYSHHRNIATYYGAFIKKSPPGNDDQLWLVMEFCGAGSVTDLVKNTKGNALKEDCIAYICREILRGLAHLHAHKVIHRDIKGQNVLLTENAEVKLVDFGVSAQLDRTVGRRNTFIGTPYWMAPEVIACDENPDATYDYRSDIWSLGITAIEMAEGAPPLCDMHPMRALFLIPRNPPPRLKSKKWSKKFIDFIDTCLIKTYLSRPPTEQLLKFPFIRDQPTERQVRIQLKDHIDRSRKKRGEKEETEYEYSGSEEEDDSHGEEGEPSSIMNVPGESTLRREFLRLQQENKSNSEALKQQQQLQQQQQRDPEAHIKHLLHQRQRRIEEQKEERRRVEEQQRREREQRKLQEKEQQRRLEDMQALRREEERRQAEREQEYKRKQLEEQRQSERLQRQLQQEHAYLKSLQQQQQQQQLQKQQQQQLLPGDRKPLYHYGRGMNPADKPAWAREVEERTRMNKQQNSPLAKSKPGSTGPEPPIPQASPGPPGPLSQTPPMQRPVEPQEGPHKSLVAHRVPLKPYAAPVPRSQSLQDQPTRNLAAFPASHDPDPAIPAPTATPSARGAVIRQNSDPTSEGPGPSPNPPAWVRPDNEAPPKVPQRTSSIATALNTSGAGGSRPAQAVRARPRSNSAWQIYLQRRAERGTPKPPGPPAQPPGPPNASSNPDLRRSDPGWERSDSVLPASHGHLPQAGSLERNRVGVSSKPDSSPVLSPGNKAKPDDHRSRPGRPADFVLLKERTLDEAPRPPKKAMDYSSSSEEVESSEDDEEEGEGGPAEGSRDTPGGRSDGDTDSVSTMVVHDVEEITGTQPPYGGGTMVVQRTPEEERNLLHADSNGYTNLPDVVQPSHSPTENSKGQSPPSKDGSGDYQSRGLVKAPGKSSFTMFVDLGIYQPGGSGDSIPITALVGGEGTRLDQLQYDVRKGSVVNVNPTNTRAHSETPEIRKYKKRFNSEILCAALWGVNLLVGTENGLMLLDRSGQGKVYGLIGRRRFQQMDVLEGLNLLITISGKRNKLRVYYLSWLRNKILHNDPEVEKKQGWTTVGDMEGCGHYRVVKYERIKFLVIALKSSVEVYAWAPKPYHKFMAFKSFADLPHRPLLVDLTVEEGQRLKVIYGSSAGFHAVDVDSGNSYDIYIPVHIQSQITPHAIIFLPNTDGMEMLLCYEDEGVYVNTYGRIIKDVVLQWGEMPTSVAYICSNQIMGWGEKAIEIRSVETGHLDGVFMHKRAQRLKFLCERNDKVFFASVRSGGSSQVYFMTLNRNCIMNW
Method: as §1

PASK = target: T3, PASK (Homo sapiens, UniProt Q96RG2)
T3 construct: purchased ThermoFisher (SelectScreen, Z'-LYTE)
Method: as §1

FLT1 (VEGFR1) = target: T4, FLT1 (VEGFR1) (Homo sapiens, UniProt P17948)
T4 construct: purchased ThermoFisher (SelectScreen, Z'-LYTE)
Method: as §1

ALK = target: T5, ALK (Homo sapiens, UniProt Q9UM73)
T5 construct: purchased ThermoFisher (SelectScreen, Z'-LYTE)
Method: as §1

PRKCI (PKC iota) = target: T6, PRKCI (PKC iota) (Homo sapiens, UniProt P41743)
T6 construct: purchased ThermoFisher (SelectScreen, Z'-LYTE)
T6 sequence (P41743 1-596): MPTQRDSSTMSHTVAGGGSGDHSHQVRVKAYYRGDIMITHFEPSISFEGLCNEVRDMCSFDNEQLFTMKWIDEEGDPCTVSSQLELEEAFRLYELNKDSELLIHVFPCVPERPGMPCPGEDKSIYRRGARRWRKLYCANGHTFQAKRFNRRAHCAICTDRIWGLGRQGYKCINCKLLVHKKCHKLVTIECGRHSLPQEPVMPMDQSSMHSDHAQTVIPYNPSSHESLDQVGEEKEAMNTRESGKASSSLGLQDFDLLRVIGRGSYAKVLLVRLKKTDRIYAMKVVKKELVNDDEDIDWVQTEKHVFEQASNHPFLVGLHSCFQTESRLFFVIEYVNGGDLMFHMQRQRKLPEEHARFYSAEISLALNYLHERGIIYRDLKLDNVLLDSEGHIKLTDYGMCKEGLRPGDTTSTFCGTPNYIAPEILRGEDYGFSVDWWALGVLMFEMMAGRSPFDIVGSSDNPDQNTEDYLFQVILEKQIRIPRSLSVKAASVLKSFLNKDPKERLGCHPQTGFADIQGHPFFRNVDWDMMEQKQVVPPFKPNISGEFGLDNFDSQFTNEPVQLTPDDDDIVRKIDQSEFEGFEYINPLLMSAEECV
Method: as §1

EPHA5 = target: T7, EPHA5 (Homo sapiens, UniProt P54756)
T7 construct: purchased ThermoFisher (SelectScreen, Z'-LYTE)
T7 sequence (P54756 25-1037): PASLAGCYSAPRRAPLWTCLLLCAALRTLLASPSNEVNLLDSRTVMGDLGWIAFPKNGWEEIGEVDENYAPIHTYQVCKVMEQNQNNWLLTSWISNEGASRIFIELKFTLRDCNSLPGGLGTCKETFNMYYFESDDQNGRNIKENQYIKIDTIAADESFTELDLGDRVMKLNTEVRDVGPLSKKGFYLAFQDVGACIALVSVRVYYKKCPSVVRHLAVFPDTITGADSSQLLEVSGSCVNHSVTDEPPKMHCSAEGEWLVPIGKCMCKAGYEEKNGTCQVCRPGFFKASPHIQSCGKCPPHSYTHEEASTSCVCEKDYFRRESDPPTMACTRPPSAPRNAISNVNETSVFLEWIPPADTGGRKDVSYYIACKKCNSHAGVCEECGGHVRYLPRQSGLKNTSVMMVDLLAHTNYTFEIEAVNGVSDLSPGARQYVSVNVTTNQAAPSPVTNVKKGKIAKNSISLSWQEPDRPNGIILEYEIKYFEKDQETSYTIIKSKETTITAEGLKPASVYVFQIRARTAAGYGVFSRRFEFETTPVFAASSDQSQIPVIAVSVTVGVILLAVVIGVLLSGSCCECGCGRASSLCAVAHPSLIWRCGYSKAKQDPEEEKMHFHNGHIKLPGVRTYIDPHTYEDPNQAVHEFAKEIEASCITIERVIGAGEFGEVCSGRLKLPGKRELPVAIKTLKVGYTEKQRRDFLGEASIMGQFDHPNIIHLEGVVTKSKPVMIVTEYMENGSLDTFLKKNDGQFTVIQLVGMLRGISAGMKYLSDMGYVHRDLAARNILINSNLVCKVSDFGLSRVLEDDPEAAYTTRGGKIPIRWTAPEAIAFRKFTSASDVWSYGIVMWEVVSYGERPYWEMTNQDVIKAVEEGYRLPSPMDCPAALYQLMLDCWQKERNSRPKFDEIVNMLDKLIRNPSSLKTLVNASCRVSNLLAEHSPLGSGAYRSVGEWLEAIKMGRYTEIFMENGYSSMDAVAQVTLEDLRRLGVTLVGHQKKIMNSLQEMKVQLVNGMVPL
Method: as §1

MYLK2 (skMLCK) = target: T8, MYLK2 (skMLCK) (Homo sapiens, UniProt Q9H1R3)
T8 construct: purchased ThermoFisher (SelectScreen, Z'-LYTE)
Method: as §1

SGK (SGK1) = target: T9, SGK (SGK1) (Homo sapiens, UniProt O00141)
T9 construct: purchased ThermoFisher (SelectScreen, Z'-LYTE)
T9 sequence (O00141 1-431): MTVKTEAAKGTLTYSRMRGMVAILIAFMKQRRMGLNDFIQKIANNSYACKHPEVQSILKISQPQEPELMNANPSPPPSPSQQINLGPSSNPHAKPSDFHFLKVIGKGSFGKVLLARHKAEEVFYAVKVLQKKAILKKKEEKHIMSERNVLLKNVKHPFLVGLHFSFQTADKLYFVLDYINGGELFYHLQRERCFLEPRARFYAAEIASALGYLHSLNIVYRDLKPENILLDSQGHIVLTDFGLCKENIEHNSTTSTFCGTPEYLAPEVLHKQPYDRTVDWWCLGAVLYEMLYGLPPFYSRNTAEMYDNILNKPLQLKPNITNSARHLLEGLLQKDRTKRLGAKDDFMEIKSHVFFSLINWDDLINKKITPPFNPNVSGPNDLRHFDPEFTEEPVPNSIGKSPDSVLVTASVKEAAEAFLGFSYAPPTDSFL
Method: as §1

CDK5/p25 = target: T10, CDK5/p25 (Homo sapiens, UniProt Q00535)
T10 construct: purchased ThermoFisher (SelectScreen, Z'-LYTE)
T10 sequence (Q00535 whole entry): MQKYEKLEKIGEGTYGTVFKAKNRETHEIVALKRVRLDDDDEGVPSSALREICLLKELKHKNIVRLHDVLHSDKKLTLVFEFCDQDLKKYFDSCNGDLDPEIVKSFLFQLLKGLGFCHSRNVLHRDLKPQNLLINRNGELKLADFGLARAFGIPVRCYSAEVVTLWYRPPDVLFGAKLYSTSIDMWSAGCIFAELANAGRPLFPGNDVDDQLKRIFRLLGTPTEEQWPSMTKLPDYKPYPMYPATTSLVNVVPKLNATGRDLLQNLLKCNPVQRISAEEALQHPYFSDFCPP
T10 sequence (Q15078 99-307 partner limits assumed): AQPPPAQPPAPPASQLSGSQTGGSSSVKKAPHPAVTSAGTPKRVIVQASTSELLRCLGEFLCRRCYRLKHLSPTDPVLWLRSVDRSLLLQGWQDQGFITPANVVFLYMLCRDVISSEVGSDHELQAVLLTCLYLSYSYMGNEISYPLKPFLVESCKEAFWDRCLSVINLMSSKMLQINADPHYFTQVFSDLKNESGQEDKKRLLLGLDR
Method: as §1

MAPKAPK3 = target: T11, MAPKAPK3 (Homo sapiens, UniProt Q16644)
T11 construct: purchased ThermoFisher (SelectScreen, Z'-LYTE)
Method: as §1

CSNK1G1 (CK1 gamma 1) = target: T12, CSNK1G1 (CK1 gamma 1) (Homo sapiens, UniProt Q9HCP0)
T12 construct: purchased ThermoFisher (SelectScreen, Z'-LYTE)
T12 sequence (Q9HCP0 whole entry): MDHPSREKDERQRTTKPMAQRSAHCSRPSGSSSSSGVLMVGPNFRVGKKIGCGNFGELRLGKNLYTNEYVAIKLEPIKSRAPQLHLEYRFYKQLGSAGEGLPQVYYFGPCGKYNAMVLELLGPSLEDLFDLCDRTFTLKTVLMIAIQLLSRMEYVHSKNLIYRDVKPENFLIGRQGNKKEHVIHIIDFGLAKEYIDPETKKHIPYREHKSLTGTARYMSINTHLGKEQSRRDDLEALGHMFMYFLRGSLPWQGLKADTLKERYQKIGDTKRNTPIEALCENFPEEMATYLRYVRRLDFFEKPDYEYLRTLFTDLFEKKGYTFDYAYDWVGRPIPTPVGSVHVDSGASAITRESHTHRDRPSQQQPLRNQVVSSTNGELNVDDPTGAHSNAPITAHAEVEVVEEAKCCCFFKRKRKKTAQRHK
Method: as §1

PIM2 = target: T13, PIM2 (Homo sapiens, UniProt Q9P1W9)
T13 construct: purchased ThermoFisher (SelectScreen, Z'-LYTE)
T13 sequence (Q9P1W9 whole entry): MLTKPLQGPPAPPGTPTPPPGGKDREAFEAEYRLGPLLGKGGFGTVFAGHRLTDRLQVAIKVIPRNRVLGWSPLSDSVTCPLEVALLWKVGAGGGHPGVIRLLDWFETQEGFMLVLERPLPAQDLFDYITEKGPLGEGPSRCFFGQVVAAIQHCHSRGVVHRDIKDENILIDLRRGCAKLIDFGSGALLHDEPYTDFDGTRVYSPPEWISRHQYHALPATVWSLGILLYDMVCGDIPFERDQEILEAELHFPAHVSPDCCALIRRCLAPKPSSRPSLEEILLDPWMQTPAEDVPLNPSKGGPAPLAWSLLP
Method: as §1

PRKCB1 (PKC beta I) = target: T14, PRKCB1 (PKC beta I) (Homo sapiens, UniProt P05771)
T14 construct: purchased ThermoFisher (SelectScreen, Z'-LYTE)
T14 sequence (P05771 whole entry): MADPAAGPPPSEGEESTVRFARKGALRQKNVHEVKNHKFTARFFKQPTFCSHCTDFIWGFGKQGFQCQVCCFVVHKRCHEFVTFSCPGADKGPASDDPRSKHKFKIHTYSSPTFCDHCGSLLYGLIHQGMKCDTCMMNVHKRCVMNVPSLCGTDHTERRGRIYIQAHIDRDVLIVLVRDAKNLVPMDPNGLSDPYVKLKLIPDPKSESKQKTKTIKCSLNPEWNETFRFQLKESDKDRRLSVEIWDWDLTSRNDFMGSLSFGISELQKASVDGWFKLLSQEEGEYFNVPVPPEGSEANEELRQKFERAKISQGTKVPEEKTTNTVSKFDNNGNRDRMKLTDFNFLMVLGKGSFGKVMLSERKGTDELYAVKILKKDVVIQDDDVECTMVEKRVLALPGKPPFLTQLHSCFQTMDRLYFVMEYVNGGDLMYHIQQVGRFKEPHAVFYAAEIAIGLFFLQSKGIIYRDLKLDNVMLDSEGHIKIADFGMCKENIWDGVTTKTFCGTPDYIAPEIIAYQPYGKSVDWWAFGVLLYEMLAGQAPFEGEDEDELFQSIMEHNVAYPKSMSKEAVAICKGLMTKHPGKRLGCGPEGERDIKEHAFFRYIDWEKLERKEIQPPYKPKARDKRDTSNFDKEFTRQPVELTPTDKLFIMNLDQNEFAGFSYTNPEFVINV
Method: as §1

MAP4K4 (HGK) = target: T15, MAP4K4 (HGK) (Homo sapiens, UniProt O95819)
T15 construct: purchased ThermoFisher (SelectScreen, Z'-LYTE)
Method: as §1

T1 sequence (P21802 22-821): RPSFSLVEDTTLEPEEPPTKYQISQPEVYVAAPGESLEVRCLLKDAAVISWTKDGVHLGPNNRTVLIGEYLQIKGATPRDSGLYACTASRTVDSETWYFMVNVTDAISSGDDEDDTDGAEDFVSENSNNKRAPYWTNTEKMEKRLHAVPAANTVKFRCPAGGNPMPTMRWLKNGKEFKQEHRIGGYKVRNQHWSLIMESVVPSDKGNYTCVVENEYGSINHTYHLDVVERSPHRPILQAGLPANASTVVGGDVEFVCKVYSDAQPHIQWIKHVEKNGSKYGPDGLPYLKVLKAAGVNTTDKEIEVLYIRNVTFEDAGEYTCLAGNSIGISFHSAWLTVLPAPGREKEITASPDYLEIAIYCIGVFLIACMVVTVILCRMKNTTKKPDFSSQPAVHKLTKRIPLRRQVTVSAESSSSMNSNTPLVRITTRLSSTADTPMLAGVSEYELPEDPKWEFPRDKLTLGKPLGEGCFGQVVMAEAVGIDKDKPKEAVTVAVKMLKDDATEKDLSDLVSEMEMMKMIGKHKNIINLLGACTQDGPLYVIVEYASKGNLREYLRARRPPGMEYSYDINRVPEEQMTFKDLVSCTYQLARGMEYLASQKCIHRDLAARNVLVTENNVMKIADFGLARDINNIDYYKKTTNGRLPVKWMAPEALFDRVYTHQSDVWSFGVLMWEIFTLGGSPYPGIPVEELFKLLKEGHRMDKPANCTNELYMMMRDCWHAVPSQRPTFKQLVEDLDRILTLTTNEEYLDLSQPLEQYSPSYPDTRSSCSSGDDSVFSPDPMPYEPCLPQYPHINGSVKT

Molecule | inhibition at 10 µM (FGFR2) | inhibition at 10 µM (MINK1) | inhibition at 10 µM (PASK) | inhibition at 10 µM (FLT1 (VEGFR1)) | inhibition at 10 µM (ALK) | inhibition at 10 µM (PRKCI (PKC iota)) | inhibition at 10 µM (EPHA5) | inhibition at 10 µM (MYLK2 (skMLCK)) | inhibition at 10 µM (SGK (SGK1)) | inhibition at 10 µM (CDK5/p25) | inhibition at 10 µM (MAPKAPK3) | inhibition at 10 µM (CSNK1G1 (CK1 gamma 1)) | inhibition at 10 µM (PIM2) | inhibition at 10 µM (PRKCB1 (PKC beta I)) | inhibition at 10 µM (MAP4K4 (HGK)) | further results
Cc1cc(Nc2nc(N)nn2C(=O)NC(C)C)ccc1Cl [Compound 5] | 53% | 21% | 1.44% | 34% | 20% | -6% | 6.49% | -0.775% | 9% | 77% | -5% | 8% | -13% | 2.25% | -6% | 
Cc1ncc(-c2nc(Nc3ccc(C(=O)NCCN4CCCCC4)cc3)ncc2F)n1C(C)C [Compound 3] | 88% | 88% | 30% | 73% | 78% | 5.66% | 71% | 78% | 91% | 99% | 18% | 70% | 40% | 86% | 84% | 
XMD8-92 [Compound 2, reference compound] |  |  |  |  |  |  |  |  |  |  |  |  |  |  |  | FGFR2 % Inhibition (FGFR2; 10 µM compound, ATP Km app): 33%; MINK1 % Inhibition (MINK1; 10 µM compound, ATP Km app): 66%; PASK % Inhibition (PASK; 10 µM compound, ATP Km app): 49%; FLT1 (VEGFR1) % Inhibition (FLT1 (VEGFR1); 10 µM compound, ATP Km app): -1.58%; ALK % Inhibition (ALK; 10 µM compound, ATP Km app): 16%; PRKCI (PKC iota) % Inhibition (PRKCI (PKC iota); 10 µM compound, ATP Km app): 0.17%; EPHA5 % Inhibition (EPHA5; 10 µM compound, ATP Km app): 21%; MYLK2 (skMLCK) % Inhibition (MYLK2 (skMLCK); 10 µM compound, ATP Km app): 42%; SGK (SGK1) % Inhibition (SGK (SGK1); 10 µM compound, ATP Km app): 66%; CDK5/p25 % Inhibition (CDK5/p25; 10 µM compound, ATP Km app): 38%; MAPKAPK3 % Inhibition (MAPKAPK3; 10 µM compound, ATP Km app): 96%; CSNK1G1 (CK1 gamma 1) % Inhibition (CSNK1G1 (CK1 gamma 1); 10 µM compound, ATP Km app): 24%; PIM2 % Inhibition (PIM2; 10 µM compound, ATP Km app): 22%; PRKCB1 (PKC beta I) % Inhibition (PRKCB1 (PKC beta I); 10 µM compound, ATP Km app): 13%; MAP4K4 (HGK) % Inhibition (MAP4K4 (HGK); 10 µM compound, ATP Km app): 84%
